US20260305610A1, “TRIAZOLE COMPOUND, AND PREPARATION METHOD THEREFOR, HERBICIDAL COMPOSITION AND USE THEREOF” (QINGDAO KINGAGROOT CHEMICAL COMPOUND CO., LTD., priority 2023, published 2026)

Assays:
[1] = system: monocotyledonous and dicotyledonous weeds; test: Pre-emergence test experiment (weeds); assay type: in vivo; set-up: key: 9: completely dead; 8: growth control rate is greater than or equal to 90% and less than 100%; 7: growth control rate is greater than or equal to 80% and less than 90%; 6: growth control rate is greater than or equal to 70% and less than 80%; growth control rate is greater than or equal to 50% and less than 70%; 4: growth control rate is greater than or equal to 30% and less than 50%; growth control rate is greater than or equal to 20% and less than 30%; growth control rate is greater than or equal to 10% and less than 20%; growth control rate is less than 10%; 0: no effect; conditions: 30 g a.i./ha
major crops = test: Pre-emergence test experiment (crops); assay type: in vivo; set-up: key: 9: completely dead; 8: growth control rate is greater than or equal to 90% and less than 100%; 7: growth control rate is greater than or equal to 80% and less than 90%; 6: growth control rate is greater than or equal to 70% and less than 80%; growth control rate is greater than or equal to 50% and less than 70%; 4: growth control rate is greater than or equal to 30% and less than 50%; growth control rate is greater than or equal to 20% and less than 30%; growth control rate is greater than or equal to 10% and less than 20%; growth control rate is less than 10%; 0: no effect; conditions: 30 g a.i./ha

With `Cc1ccc(-n2cnc(C(F)(F)F)n2)nc1Oc1cncc(C(F)(F)F)c1` [Compound 11] as the molecule, how does the “Pre-emergence activity level (growth control rate) on Amaranthus retroflexus” value [1] read?
Its value is 9.

And the “Pre-emergence activity level (growth control rate) on Descurainia sophia” value [1]?
Its value is 9.

And the “Pre-emergence activity level (growth control rate) on Digitaria sanguinalis” value [1]?
Its value is 9.

What about the “Pre-emergence activity level (growth control rate) on Setaria viridis” value [1] of the same molecule?
The value was 9.

What about the “Pre-emergence activity level (growth control rate) on Solanum nigrum” value [1] of the same molecule?
The value was 9.

And the “Pre-emergence activity level (growth control rate) on Veronica” value (from here on “Pre-emergence activity level … on Veronica”) [1]?
Its value is 9.

What about the “Pre-emergence plant damage level (growth control rate) on Corn” value (from here on “Pre-emergence plant damage level … on Corn”) (major crops) of the same molecule?
The value was 0.

What about the “Pre-emergence plant damage level (growth control rate) on Cotton” value (from here on “Pre-emergence plant damage level … on Cotton”) (major crops) of the same molecule?
Its value is 0.

What about the “Pre-emergence plant damage level (growth control rate) on Soybean” value (“Pre-emergence plant damage level … on Soybean” below) (major crops) of the same molecule?
Its value is 0.

With `Cc1ccc(-n2cnc(C(F)(F)F)n2)nc1Oc1cccc(C(F)F)c1` [Compound 12] as the molecule, how does the “Pre-emergence activity level (growth control rate) on Amaranthus retroflexus” value [1] read?
Its value is 9.

What about the “Pre-emergence activity level (growth control rate) on Descurainia sophia” value [1] of the same molecule?
The value was 9.

What about the “Pre-emergence activity level (growth control rate) on Digitaria sanguinalis” value [1] of the same molecule?
The value was 9.

And the “Pre-emergence activity level (growth control rate) on Setaria viridis” value [1]?
The value was 9.

And the “Pre-emergence activity level (growth control rate) on Solanum nigrum” value [1]?
Its value is 9.

And the “Pre-emergence activity level … on Veronica” value [1]?
The value was 9.

And the “Pre-emergence plant damage level … on Corn” value (major crops)?
Its value is 0.

And the “Pre-emergence plant damage level … on Cotton” value (major crops)?
Its value is 0.

What about the “Pre-emergence plant damage level … on Soybean” value (major crops) of the same molecule?
Its value is 0.

`Cc1ccc(-n2cnc(C(C)(F)F)n2)nc1Oc1cccc(C(F)(F)F)c1` [Compound 13] was tested. Which “Pre-emergence activity level (growth control rate) on Amaranthus retroflexus” value [1] did it give?
Its value is 9.

And the “Pre-emergence activity level (growth control rate) on Descurainia sophia” value [1]?
The value was 9.

And the “Pre-emergence activity level (growth control rate) on Digitaria sanguinalis” value [1]?
The value was 8 (growth control rate is greater than or equal to 90% and less than 100%).

And the “Pre-emergence activity level (growth control rate) on Setaria viridis” value [1]?
The value was 7 (growth control rate is greater than or equal to 80% and less than 90%).

What about the “Pre-emergence activity level … on Veronica” value [1] of the same molecule?
The value was 9.

And the “Pre-emergence plant damage level … on Corn” value (major crops)?
The value was 0.

And the “Pre-emergence plant damage level … on Cotton” value (major crops)?
Its value is 0.

And the “Pre-emergence plant damage level … on Soybean” value (major crops)?
The value was 0.

Which results are given for `Cc1ccc(-n2cnc(C(F)(F)C(F)(F)F)n2)nc1Oc1cccc(C(F)(F)F)c1` [Compound 14]?
Pre-emergence activity level (growth control rate) on Amaranthus retroflexus [1]: 9; Pre-emergence activity level (growth control rate) on Descurainia sophia [1]: 9; Pre-emergence activity level (growth control rate) on Digitaria sanguinalis [1]: 8 (growth control rate is greater than or equal to 90% and less than 100%); Pre-emergence activity level (growth control rate) on Setaria viridis [1]: 9; Pre-emergence activity level (growth control rate) on Solanum nigrum [1]: 9; Pre-emergence activity level (growth control rate) on Veronica [1]: 9; Pre-emergence plant damage level (growth control rate) on Corn (major crops): 0; Pre-emergence plant damage level (growth control rate) on Cotton (major crops): 0; Pre-emergence plant damage level (growth control rate) on Soybean (major crops): 0

What does the source list for `Cc1ccc(-n2cnc(C(F)(F)C(F)(F)F)n2)nc1Oc1cncc(C(F)(F)F)c1` [Compound 15]?
Pre-emergence activity level (growth control rate) on Amaranthus retroflexus [1]: 9; Pre-emergence activity level (growth control rate) on Descurainia sophia [1]: 9; Pre-emergence activity level (growth control rate) on Digitaria sanguinalis [1]: 8 (growth control rate is greater than or equal to 90% and less than 100%); Pre-emergence activity level (growth control rate) on Setaria viridis [1]: 9; Pre-emergence activity level (growth control rate) on Solanum nigrum [1]: 8 (growth control rate is greater than or equal to 90% and less than 100%); Pre-emergence activity level (growth control rate) on Veronica [1]: 9; Pre-emergence plant damage level (growth control rate) on Corn (major crops): 0; Pre-emergence plant damage level (growth control rate) on Cotton (major crops): 0; Pre-emergence plant damage level (growth control rate) on Soybean (major crops): 0

With `CCc1ccc(-n2cnc(C(F)(F)F)n2)nc1Oc1cncc(C(F)(F)F)c1` [Compound 17] as the molecule, how does the “Pre-emergence activity level (growth control rate) on Amaranthus retroflexus” value [1] read?
The value was 9.

And the “Pre-emergence activity level (growth control rate) on Descurainia sophia” value [1]?
The value was 9.

And the “Pre-emergence activity level (growth control rate) on Digitaria sanguinalis” value [1]?
Its value is 9.

And the “Pre-emergence activity level (growth control rate) on Setaria viridis” value [1]?
The value was 9.

And the “Pre-emergence activity level (growth control rate) on Solanum nigrum” value [1]?
The value was 9.

What about the “Pre-emergence activity level … on Veronica” value [1] of the same molecule?
Its value is 9.

What about the “Pre-emergence plant damage level … on Corn” value (major crops) of the same molecule?
Its value is 0.

What about the “Pre-emergence plant damage level … on Cotton” value (major crops) of the same molecule?
The value was 0.

What about the “Pre-emergence plant damage level … on Soybean” value (major crops) of the same molecule?
Its value is 0.

For `CCc1ccc(-n2cnc(C(C)(F)F)n2)nc1Oc1cccc(C(F)(F)F)c1` [Compound 18], which “Pre-emergence activity level (growth control rate) on Amaranthus retroflexus” value [1] is on record?
The value was 9.

What about the “Pre-emergence activity level (growth control rate) on Descurainia sophia” value [1] of the same molecule?
Its value is 9.

What about the “Pre-emergence activity level (growth control rate) on Digitaria sanguinalis” value [1] of the same molecule?
The value was 8 (growth control rate is greater than or equal to 90% and less than 100%).

What about the “Pre-emergence activity level (growth control rate) on Setaria viridis” value [1] of the same molecule?
Its value is 8 (growth control rate is greater than or equal to 90% and less than 100%).

And the “Pre-emergence activity level (growth control rate) on Solanum nigrum” value [1]?
The value was 8 (growth control rate is greater than or equal to 90% and less than 100%).

And the “Pre-emergence activity level … on Veronica” value [1]?
The value was 9.

And the “Pre-emergence plant damage level … on Corn” value (major crops)?
Its value is 0.

What about the “Pre-emergence plant damage level … on Cotton” value (major crops) of the same molecule?
Its value is 0.

And the “Pre-emergence plant damage level … on Soybean” value (major crops)?
The value was 0.

Which “Pre-emergence activity level (growth control rate) on Amaranthus retroflexus” value [1] does the source give for `CCc1ccc(-n2cnc(C(F)(F)C(F)(F)F)n2)nc1Oc1cccc(C(F)(F)F)c1` [Compound 19] here?
Its value is 9.

And the “Pre-emergence activity level (growth control rate) on Descurainia sophia” value [1]?
The value was 9.

What about the “Pre-emergence activity level (growth control rate) on Digitaria sanguinalis” value [1] of the same molecule?
Its value is 8 (growth control rate is greater than or equal to 90% and less than 100%).

And the “Pre-emergence activity level (growth control rate) on Setaria viridis” value [1]?
Its value is 8 (growth control rate is greater than or equal to 90% and less than 100%).

And the “Pre-emergence activity level (growth control rate) on Solanum nigrum” value [1]?
Its value is 8 (growth control rate is greater than or equal to 90% and less than 100%).

And the “Pre-emergence activity level … on Veronica” value [1]?
Its value is 9.

And the “Pre-emergence plant damage level … on Corn” value (major crops)?
Its value is 0.

What about the “Pre-emergence plant damage level … on Cotton” value (major crops) of the same molecule?
Its value is 0.

What about the “Pre-emergence plant damage level … on Soybean” value (major crops) of the same molecule?
Its value is 0.

`CCCc1ccc(-n2cnc(C(F)(F)F)n2)nc1Oc1cccc(C(F)(F)F)c1` [Compound 21] was tested. Which “Pre-emergence activity level (growth control rate) on Amaranthus retroflexus” value [1] did it give?
The value was 9.

What about the “Pre-emergence activity level (growth control rate) on Descurainia sophia” value [1] of the same molecule?
Its value is 9.

And the “Pre-emergence activity level (growth control rate) on Digitaria sanguinalis” value [1]?
The value was 8 (growth control rate is greater than or equal to 90% and less than 100%).

And the “Pre-emergence activity level (growth control rate) on Setaria viridis” value [1]?
The value was 8 (growth control rate is greater than or equal to 90% and less than 100%).

And the “Pre-emergence activity level (growth control rate) on Solanum nigrum” value [1]?
The value was 7 (growth control rate is greater than or equal to 80% and less than 90%).

What about the “Pre-emergence activity level … on Veronica” value [1] of the same molecule?
The value was 9.

And the “Pre-emergence plant damage level … on Corn” value (major crops)?
Its value is 0.

What about the “Pre-emergence plant damage level … on Cotton” value (major crops) of the same molecule?
The value was 0.

What about the “Pre-emergence plant damage level … on Soybean” value (major crops) of the same molecule?
Its value is 0.

Which “Pre-emergence activity level (growth control rate) on Amaranthus retroflexus” value [1] does the source give for `FC(F)(F)c1cccc(Oc2nc(-n3cnc(C(F)(F)F)n3)ccc2C2CC2)c1` [Compound 22] here?
The value was 9.

What about the “Pre-emergence activity level (growth control rate) on Descurainia sophia” value [1] of the same molecule?
The value was 9.

What about the “Pre-emergence activity level (growth control rate) on Digitaria sanguinalis” value [1] of the same molecule?
The value was 7 (growth control rate is greater than or equal to 80% and less than 90%).

And the “Pre-emergence activity level (growth control rate) on Setaria viridis” value [1]?
Its value is 8 (growth control rate is greater than or equal to 90% and less than 100%).

And the “Pre-emergence activity level (growth control rate) on Solanum nigrum” value [1]?
Its value is 7 (growth control rate is greater than or equal to 80% and less than 90%).

What about the “Pre-emergence activity level … on Veronica” value [1] of the same molecule?
Its value is 9.

And the “Pre-emergence plant damage level … on Corn” value (major crops)?
Its value is 0.

What about the “Pre-emergence plant damage level … on Cotton” value (major crops) of the same molecule?
Its value is 0.

And the “Pre-emergence plant damage level … on Soybean” value (major crops)?
Its value is 0.

What does the source list for `Cc1ccc(-n2cnc(C(F)(F)F)n2)nc1Oc1cccc(F)c1` [Compound 39]?
Pre-emergence activity level (growth control rate) on Amaranthus retroflexus [1]: 9; Pre-emergence activity level (growth control rate) on Veronica [1]: 9; Pre-emergence plant damage level (growth control rate) on Corn (major crops): 0; Pre-emergence plant damage level (growth control rate) on Cotton (major crops): 0; Pre-emergence plant damage level (growth control rate) on Soybean (major crops): 0
